In paper PMC11059415 (Heliyon, 2024) one finds Kd data, which are given here for one compound.

For the assay, the target named is T1, Sp-Fld (Sp-flavodoxin) (Streptococcus pneumoniae, UniProt Q8DPG4).
T1 sequence (Q8DPG4 1-147): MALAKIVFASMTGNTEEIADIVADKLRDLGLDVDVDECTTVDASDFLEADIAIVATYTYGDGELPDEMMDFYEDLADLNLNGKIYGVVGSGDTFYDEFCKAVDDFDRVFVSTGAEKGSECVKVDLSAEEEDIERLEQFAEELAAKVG
Put plainly: isothermal titration calorimetry. Format: binding.

On to `N[C@@H](Cc1cc(I)c(Oc2cc(I)c(O)c(I)c2)c(I)c1)C(=O)O` [Cp1, L-thyroxine], for which the Kd stood at 2500 ± 400 nM.
